According to patent US5798357A, “Agent for prophylaxis and treatment of thromboxane A2 -mediated diseases” (The Green Cross Corporation, priority 1994, dated 1998):
Where a name gives a salt, the structure may show the parent alone. Read-outs that look alike come from different tables or passages of the source.

Legend:
TXA2 synthetase [1] = target: T1, TXA2 synthetase (Homo sapiens, UniProt P24557); experiment: inhibition of TXA2 synthetase by the use of human platelet microsome; format: biochemical; settings: read-out: IC50 (amount necessary to inhibit 50% of TXA2 synthesis) of TXA2 synthetase inhibitory action
T1 construct: human platelet microsome was used; from tissue; host or cells: human blood platelets, microsomal fraction
T1 sequence (P24557 1-533): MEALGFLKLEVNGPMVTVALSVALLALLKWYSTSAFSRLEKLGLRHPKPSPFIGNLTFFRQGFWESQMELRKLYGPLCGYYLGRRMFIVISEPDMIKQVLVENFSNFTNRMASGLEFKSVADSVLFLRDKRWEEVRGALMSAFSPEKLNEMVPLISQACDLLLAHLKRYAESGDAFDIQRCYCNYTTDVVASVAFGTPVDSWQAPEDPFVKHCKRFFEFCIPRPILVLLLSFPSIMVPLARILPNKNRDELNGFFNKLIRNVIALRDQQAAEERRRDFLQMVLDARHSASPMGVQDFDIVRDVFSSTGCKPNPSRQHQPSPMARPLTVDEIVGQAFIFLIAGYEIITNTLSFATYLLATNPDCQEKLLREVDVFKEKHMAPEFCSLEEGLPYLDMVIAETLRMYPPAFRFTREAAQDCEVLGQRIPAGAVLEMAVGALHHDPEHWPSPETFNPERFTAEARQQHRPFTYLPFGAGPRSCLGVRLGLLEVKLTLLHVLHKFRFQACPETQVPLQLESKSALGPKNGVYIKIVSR
Description: The TXA2 amount in the above Experimental Examples was measured as TXB2 (stable compound thereof) amount by the EIA method using TXB2 assay kit (manufactured by Amersham). inhibition of TXA2 synthetase by the use of human platelet microsome In the same manner as in Experimental Example 2 except that human platelet microsome was used instead of rabbit platelet microsome, the experiment was performed. Compound A, Compound B and Compound C were used as reagents.

rabbit platelets = experiment: TXA2 release from rabbit platelets; format: cell-based; settings: Oryctolagus cuniculus, Platelet, 8 min, washed rabbit platelets, 37° C., read-out: TXA2 release suppressing action: amount necessary for 50% inhibition of TXA2 release
Description: TXA2 release from rabbit platelets Blood was taken from the carotid artery of normal rabbit using ethylenediaminetetraacetic acid (EDTA; 77 mM EDTA, 1/10 vol). The blood was centrifuged at 1800 rpm for 8 minutes and platelet rich plasma in the supernatant was recovered, which was then centrifuged at 3200 rpm for 8 minutes. The sediment (platelet) was washed with Tyrode-HEPES-EDTA buffer and centrifuged at 3200 rpm for 8 minutes. The sediment was suspended in Tyrode-HEPES buffer to prepare washed platelets (5×10^8 platelets/ml). 100% DMSO or a reagent (Compound A, 1.5 μl) was added to the washed platelets (270 μl) and the mixture was heated at 37° C. for 2 minutes. Then, collagen (10 μg/ml) and 1 mM Ca^2+ (or 1 mM Ca^2+ alone when investigating release from unstimulated platelets) were added and the experiment was started. After heating at 37° C. for 8 minutes, 10^-3 M indomethacin was added and the cuvette was placed in ice to stop the reaction. After centrifugation at 10,000 rpm for 10 minutes, the supernatant was taken and stored at -20° C. until used for the TXA2 determination. The TXA2 amount in the above Experimental Examples was measured as TXB2 (stable compound thereof) amount by the EIA method using TXB2 assay kit (manufactured by Amersham). | *1: amount necessary for 50% inhibition of TXA2 release (μM)

TXA2 synthetase [2] = target: T2, TXA2 synthetase (Oryctolagus cuniculus, UniProt G1TAZ9); experiment: Inhibition of TXA2 synthetase using rabbit platelet microsome; format: biochemical; settings: PGH2 5 nmol, 22° C., 3 minutes, measured as TXB2 by EIA, read-out: TXA2 synthetase inhibitory action: amount necessary for 50% inhibition of TXA2 synthesis
T2 construct: to prepare a microsomal fraction; from tissue; host or cells: rabbit blood platelets, microsomal fraction
T2 sequence (G1TAZ9 1-530): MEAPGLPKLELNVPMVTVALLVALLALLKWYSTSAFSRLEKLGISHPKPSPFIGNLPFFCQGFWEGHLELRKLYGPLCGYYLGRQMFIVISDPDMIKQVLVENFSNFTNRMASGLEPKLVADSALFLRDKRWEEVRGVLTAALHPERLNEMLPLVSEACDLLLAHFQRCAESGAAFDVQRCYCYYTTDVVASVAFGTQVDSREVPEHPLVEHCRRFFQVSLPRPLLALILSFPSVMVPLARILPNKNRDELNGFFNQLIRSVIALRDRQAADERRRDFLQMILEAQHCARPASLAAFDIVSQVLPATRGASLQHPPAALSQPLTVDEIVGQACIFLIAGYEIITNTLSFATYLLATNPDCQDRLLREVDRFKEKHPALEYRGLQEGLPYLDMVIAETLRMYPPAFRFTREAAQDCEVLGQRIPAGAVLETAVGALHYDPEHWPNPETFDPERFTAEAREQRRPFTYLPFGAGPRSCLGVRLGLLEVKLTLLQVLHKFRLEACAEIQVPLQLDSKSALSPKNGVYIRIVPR
Description: Inhibition of TXA2 synthetase using rabbit platelet microsome
Blood was taken from the carotid artery of normal rabbit, using EDTA (77 mM EDTA, 1/10 vol). The blood was centrifuged at 1300 rpm for 10 minutes and platelet rich plasma in the supernatant was recovered, which was centrifuged at 3400 rpm for 15 minutes. The sediment was washed with physiological saline (original volume) and centrifuged at 3400 rpm for 15 minutes. Then, 0.05M Tris-HCl buffer (1 mM EDTA, pH 7.5, 3-fold weight of the wet weight of platelets) was added to the sediment and the mixture was homogenated (2 minutes, full speed) using polytron. The homogenate was centrifuged at 8300 rpm for 15 minutes (Tomy RD-20III, No. 3N) and the supernatant was centrifuged at […] for 1 hour (Beckman TL-100, TLA100.3). The sediment was suspended in 0.05M Tris-HCl buffer (1 mM EDTA, pH 7.5, one-third weight of the wet weight of platelets) to prepare a microsomal fraction. The fraction was stored at -80° C. until used for the experiment.
0.05M Tris-HCl buffer (pH 7.5, 890 μl), 100 μl of the above-mentionedmicrosome (85 μg protein) and 100% DMSO or the reagent (Compound A, 5 μl) were added and the mixture was preincubated at 22° C. for 3 minutes. […]
The TXA2 amount in the above Experimental Examples was measured as TXB2 (stable compound thereof) amount by the EIA method using TXB2 assay kit (manufactured by Amersham). […]

acute toxicity in rats = settings: rat, in vivo, po, orally administered
acute toxicity in dogs = settings: dog, in vivo, po, orally administered

Row | IC50 (TXA2 synthetase [1]) [nM] | Compound | IC50 (rabbit platelets; not stimulated, 1 mM Ca2+ alone) [nM] | IC50 (rabbit platelets; stimulated with collagen (10 μg/ml), 1 mM Ca2+) [nM] | IC50 (TXA2 synthetase [2]) [nM] | LD50 (acute toxicity in rats) [mg/kg] | LD50 (acute toxicity in dogs) [mg/kg]
1 | 30 | O=c1[nH]nc(OCC[C@@H](O)c2ccc(Cl)cc2)c(NCc2cccnc2)c1Br [Compound C, 4-bromo-6-[(3R)-(4-chlorophenyl)-3-hydroxypropoxy]-5-(3-pyridylmethylamino)-3(2H)-pyridazinone hydrochloride] | – | – | – | – | –
2 | 20 | O=c1[nH]nc(OCC[C@H](O)c2ccc(Cl)cc2)c(NCc2cccnc2)c1Br [Compound B, 4-bromo-6-[(3S)-(4-chlorophenyl)-3-hydroxypropoxy]-5-(3-pyridylmethylamino)-3(2H)-pyridazinone hydrochloride] | – | – | – | – | –

Row | Compound | IC50 (TXA2 synthetase [1]) [nM] | IC50 (rabbit platelets; not stimulated, 1 mM Ca2+ alone) [nM] | IC50 (rabbit platelets; stimulated with collagen (10 μg/ml), 1 mM Ca2+) [nM] | IC50 (TXA2 synthetase [2]) [nM] | LD50 (acute toxicity in rats) [mg/kg] | LD50 (acute toxicity in dogs) [mg/kg]
3 | Cl.O=c1[nH]nc(OCCCc2ccc(Cl)cc2)c(NCc2cccnc2)c1Br [Compound A, 4-bromo-6-[3-(4-chlorophenyl)propoxy]-5-(3-pyridylmethylamino)-3(2H)-pyridazinone hydrochloride] | 10 | 1000 | 9 | 18 | ≥ 2000 | ≥ 2000
